test system: PKC mediated IL-2 production; assay: IL-2 ELISA, human primary T cell, anti CD3+CD28+; format: cell-based; settings: Homo sapiens, T-cell, 24 h, human primary T cells stimulated with αCD3 and αCD28, 24 hours
In short: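 IL-2 was quantified by ELISA in 24 h supernatants from primary human T cells given a 1 h compound pre-treatment at 37° C. These cells had been expanded from blood mononuclear cells on αCD3/αCD28 with IL-2, and the IL-2 was removed by washing. Stimulation used plate-bound αCD3 ([…]) plus αCD28 (5 μg/ml); the counter assay used PMA (0.5 ng/ml) with ionomycin (0.1 uM) instead.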

SMILES	EC50
CO[C@@H](C)COc1cc(F)c(Nc2ncc(Cl)c(N(C[C@H](C)OC)[C@@H]3C[C@@H]4CCCN4C(C)(C)C3)n2)cc1-n1nnn(C)c1=O [Compound 239, 1-(5-((5-chloro-4-(((7R,8aS)-5,5-dimethyloctahydroindolizin-7-yl)((S)-2-methoxypropyl)amino)pyrimidin-2-yl)amino)-4-fluoro-2-((S)-2-methoxypropoxy)phenyl)-4-methyl-1,4-dihydro-5H-tetrazol-5-one]	> 10000 nM
Cn1nnn(-c2cc(Nc3ncc(Cl)c(N[C@@H]4C[C@@H]5CCCN5C(C)(C)C4)n3)c(F)cc2OCC(C)(C)O)c1=O [Compound 240, 1-(5-((5-chloro-4-(((7R,8aS)-5,5-dimethyloctahydroindolizin-7-yl)amino)pyrimidin-2-yl)amino)-4-fluoro-2-(2-hydroxy-2-methylpropoxy)phenyl)-4-methyl-1,4-dihydro-5H-tetrazol-5-one]	< 100 nM
COc1cc(Nc2ncc(F)c(N[C@@H]3C[C@@H]4CCCN4C(C)(C)C3)n2)c(F)c(-n2nnnc2C)c1 [Compound 241, 5-fluoro-N2-(2-fluoro-5-methoxy-3-(5-methyl-1H-tetrazol-1-yl)phenyl)-N4-((7R,8aS)-octahydro-5,5-dimethylindolizin-7-yl)pyrimidine-2,4-diamine]	100 to 500 nM
COc1cc(-n2nnnc2C)cc(Nc2ncc(F)c(N[C@@H]3C[C@@H]4CCCN4C(C)(C)C3)n2)c1F [Compound 242, 5-fluoro-N2-(2-fluoro-3-methoxy-5-(5-methyl-1H-tetrazol-1-yl)phenyl)-N4-((7R,8aS)-octahydro-5,5-dimethylindolizin-7-yl)pyrimidine-2,4-diamine]	< 100 nM
COc1cc(-n2nnnc2C)c(F)c(Nc2ncc(F)c(N[C@@H]3C[C@@H]4CCCN4C(C)(C)C3)n2)c1F [Compound 243, 5-fluoro-N2-(2,6-difluoro-3-methoxy-5-(5-methyl-1H-tetrazol-1-yl)phenyl)-N4-((7R,8aS)-octahydro-5,5-dimethylindolizin-7-yl)pyrimidine-2,4-diamine]	500 to 1000 nM
Cn1nc2n(c1=O)-c1cc(Nc3ncc(F)c(N[C@@H]4C[C@@H]5CCCN5C(C)(C)C4)n3)ccc1OC2(C)C [Compound 248, 5-fluoro-N2-(1H-2,4-dihydron-2,4,4-trimethyl-[1,2,4]triazolo[3,4-c][1,4]benzoxazin-1-one-8-yl)-N4-((7R,8aS)-octahydro-5,5-dimethylindolizin-7-yl)pyrimidine-2,4-diamine]	100 to 500 nM
Cc1nnnn1-c1cc(Nc2ncc(F)c(N[C@@H]3C[C@@H]4CCCN4C(C)(C)C3)n2)c(F)cc1OC1COC1 [Compound 249, 5-fluoro-N2-(2-fluoro-5-(5-methyl-1H-tetrazol-1-yl)-4-(oxetan-3-yloxy)phenyl)-N4-((7R,8aS)-octahydro-5,5-dimethylindolizin-7-yl)pyrimidine-2,4-diamine]	< 100 nM

More lines, now with the values ahead:

EC50	SMILES
1000 to 10000 nM	CC1(C)Oc2ccc(Nc3ncc(F)c(N[C@@H]4C[C@@H]5CCCN5C(C)(C)C4)n3)cc2-n2c1nn(C(CO)CCl)c2=O (stereo partly drawn) [Compound 250, 5-fluoro-N2-(1H-2,4-dihydron-4,4-dimethyl-2-(3-chloropropanol-2-yl)[1,2,4]triazolo[3,4-c][1,4]benzoxazin-1-one-8-yl)-N4-((7R,8aS)-octahydro-5,5-dimethylindolizin-7-yl)pyrimidine-2,4-diamine]
1000 to 10000 nM	CC1(C)Oc2ccc(Nc3ncc(F)c(N[C@@H]4C[C@@H]5CCCN5C(C)(C)C4)n3)cc2-n2c1nn(C1COC1)c2=O [Compound 251, 5-fluoro-N2-(1H-2,4-dihydron-4,4-dimethyl-2-(oxetan-3-yl)[1,2,4]triazolo[3,4-c][1,4]benzoxazin-1-one-8-yl)-N4-((7R,8aS)-octahydro-5,5-dimethylindolizin-7-yl)pyrimidine-2,4-diamine]
1000 to 10000 nM	Cc1nnnn1-c1cc(Nc2ncc(F)c(N[C@@H]3C[C@@H]4CCCN4C(C)(C)C3)n2)c(F)cc1O [Compound 252, 4-(4-((7R,8aS)-octahydro-5,5-dimethylindolizin-7-ylamino)-5-fluoropyrimidin-2-ylamino)-5-fluoro-2-(5-methyl-1H-tetrazol-1-yl)phenol]
